According to patent publication US7848557B2, “Rapid multi-tracer PET imaging systems and methods” (priority 2007, dated 2010):
Where two headings read alike, the source gives them in different places.

Assays:
[1] = Arterial blood sampling with octanol separation of freely available and bound fractions; format: in vivo, dogs; details: 10 min. after injection; remaining activity albumin bound
Experimental: Arterial blood sampling. Blood samples (approximately 0.4-0.5 ml) were drawn from an AV shunt on a schedule similar to the scanning schedule for determination of the arterial input functions. […] Each sample was weighed and counted in a well counter soon after withdrawal, and corrections for radioactive decay were applied to recover time-activity curves for the whole-blood and freely-available arterial input functions for use with compartment modeling. […] While this could potentially complicate measurement of the input function for each tracer; however, at 10 min. after injection the octanol-extractable fraction of PTSM in the blood was only ˜1%, with the remaining activity albumin bound.

[2] = for k1^Stress / k2^Stress / k3^Stress: adenosine stress; for k1^Rest: ± SD from fit covariance
Experimental: Data acquisition. PET scans can be performed using, for example, an Advance™ PET scanner (GE Medical Systems, Waukesha, Wis.) operated in 2D mode, though other PET scanners are contemplated within the scope of this invention. Human subjects, when used, were positioned with arms down and a strap was placed across the chest to immobilize the subject and minimize movement artifacts. Transmission scans (^68Ge rod source) were acquired to position the heart in the field of view (2 min) and for attenuation correction (10 min). […] Scans performed during stress were started at the midpoint of a 6 minute adenosine infusion (0.14 mg kg^−1 min^−1) while vital signs including pulse rate, blood pressure and oxygen saturation were assessed by a physician using standard monitoring equipment.
Dynamic PET data were acquired with a waiting period of about 50-71 min between rest and stress emission scans. Imaging protocols were designed to allow rest and stress components to be added to emulate rapid dual-injection data as further described herein. Rest and stress emission scan data were acquired separately using the following temporal sampling schedule for the first 10 minutes: (12×5 s, 6×10 s, 6×30 s and 5×1 min). For rest scans, this schedule was repeated for another 10 minutes for a total emission scan duration of about 20 minutes. This provided equal duration stress timeframes that could be shifted in time and added to the rest timeframes in order to mimic a rapid dual-injection acquisition while retaining standard single-injection emission scan sequences.
Data processing. According to one embodiment, images were reconstructed using filtered back-projection with a Hanning window cutoff at 1.56 cycles cm^−1. The 128×128 image matrices had 4.3 mm voxels and a slice thickness of 4.25 mm. Data were pre-corrected for attenuation, scatter and randoms prior to reconstruction, but not for radioactive decay because it was included in the kinetic modeling equations. A reference image for each scan was created by summing up timeframes with steady uptake of tracer in the myocardium and used as a guide for reorienting to cardiac short-axis (SA) images. The SA images for all rest and stress timeframes in each subject were co-registered using a template showing the endocardial and epicardial boundaries. Based on visual comparison of an average mid-ventricular slice from each timeframe, the entire SA image volume was shifted manually to align with the template in the plane perpendicular to the SA of the heart. Co-registration was not performed in timeframes where myocardium and blood pool were indistinguishable.
Myocardial regions were selected based on a 17-segment model of the American Society of Nuclear Cardiology (Schelbert et al. 2003), known to those of ordinary skill in the art. On each slice of a reference image, endocardial and epicardial boundaries were drawn and the angle of insertion of the right ventricle into the septum was selected as a landmark for division into sectors. The myocardium was divided into one apical region, four sectors in the apical mid-ventricle, six sectors in the basal mid-ventricle and six sectors in the base of the heart. Blood pool regions were drawn manually in each subject with size restricted to limit partial volume effect and spillover of activity from the myocardium. In each subject, the same regions were applied to all co-registered rest and stress timeframes.

[3] = emulated dual-injection, background subtraction, one typical myocardial region
[4] = emulated dual-injection, combined modeling, one typical myocardial region
[5] = separate single-injection, one typical myocardial region

CNC(=S)NN=CC(C)=NNC(=S)NC.[Cu] [PTSM, copper-pyruvaldehyde-bis[N4-methylthiosemicarbazone]]
octanol-extractable fraction in the blood [1]: roughly 1%

[13NH3] [^13N-ammonia]
k1^Stress [2, 3]: 3.50 ± 0.32 mL/min/g
k2^Stress [2, 3]: 0.80 ± 0.17
k3^Stress [2, 3]: 0.24 ± 0.04
k1^Stress [2, 4]: 3.44 ± 0.32 mL/min/g
k2^Stress [2, 4]: 0.79 ± 0.17
k3^Stress [2, 4]: 0.24 ± 0.04
k1^Stress [2, 5]: 3.33 ± 0.27 mL/min/g
k2^Stress [2, 5]: 0.69 ± 0.12
k3^Stress [2, 5]: 0.20 ± 0.03
k1^Rest ([2]; emulated dual-injection data, background subtraction, one typical myocardial region): 0.92 ± 0.05 mL/min/g
k1^Rest ([2]; emulated dual-injection data, combined modeling, 20 min, one typical myocardial region): 0.93 ± 0.05 mL/min/g
k2^Rest [2, 3]: 0.13 ± 0.04
k3^Rest [2, 3]: 0.08 ± 0.07
k4^Rest [2, 3]: 0.47 ± 0.02
k2^Rest [2, 4]: 0.14 ± 0.04
k3^Rest [2, 4]: 0.11 ± 0.06
k4^Rest [2, 4]: 0.47 ± 0.02
k1^Rest ([2]; separate single-injection, first 10 min of data, one typical myocardial region (FIG. 5)): 0.92 ± 0.05 mL/min/g
k2^Rest [2, 5]: 0.13 ± 0.04
k3^Rest [2, 5]: 0.08 ± 0.07
k4^Rest [2, 5]: 0.47 ± 0.02
